Publication PMC11079024, “Identification of a family of species-selective complex I inhibitors as potential anthelmintics” (Nature Communications, 2024)
Where two headings read alike, the source gives them in different places.

Experiments:
[1] = test system: ben-1 mutant (ECA882) C. elegans; assay: microbe, parasite or virus in culture; settings: Caenorhabditis elegans
Protocol: Liquid development and viability assays were adapted from a previously established chemical screening protocol (Burns et al.)[24]. In brief, a saturated culture of E. coli HB101 was concentrated 2-fold in liquid NGM and 40 μL of this suspension was distributed to each well of a 96-well flat-bottom culture plate. 0.5 μL chemical solution (or DMSO alone) was added to each well (1% DMSO v/v) using either a multi-channel pipette or a pinning tool (V&P Scientific). L1 worms synchronized from an embryo preparation performed the day prior were diluted to a concentration of ~2 worms/μL in M9 buffer; 10 μL worm suspension was then added to each well. Culture plates were sealed with parafilm and placed in a plastic container lined with wet paper towels to prevent evaporation. Containers were then incubated for 6 days at 20 °C with shaking at 165 rpm. Following incubation, 300 μL M9 was added to each well to decrease the turbidity of the HB101-NGM suspension. Single images of each microplate well were then taken on a Nikon Ti Eclipse inverted microscope (Nikon NIS Elements AR). Images were processed using Python scripts to isolate worm-associated pixels from background. Scores of worm development and viability were determined as the sum of worm-associated pixels in each well. Development/viability scores for each well were divided by the development /viability scores for the corresponding DMSO controls, resulting in a relative viability value for each chemical. At least three biological replicates were performed for each dose-response experiment; relative viability values were averaged across replicates. […]
anthelmintics. a. Chemical structures of four commercial benzimidazole anthelmintics (e.g., albendazole, […]
Dose response of four commercial […]
elegans strains: N2, wild type; ECA882, deletion (ben-1); ECA917, F200Y (ben-1); ECA1075, F167Y (ben-1); ECA1080, E198A (ben-1); CB3474, G104D (ben-1). The colour-coded scale denotes the phenotypic outcome of drug treatment (e.g., motility or viability) relative to DMSO controls; white/pale- […]
death and arrested development. c. […]
benzimidazole anthelmintics (blue) were conducted in C. elegans development and viability assays for wild type (N2) and ben-1 mutant (ECA882) C. elegans (see Supplementary Date File 1).
All data used for generation of dose-response curves is the mean of at least three […]
Supplementary Figure 7 (continued). Davie et al.

[2] = test system: L1 wild-type C. elegans; settings: for Relative Motility: worm motility 3 hours after the removal of KCN (endpoint), relative to DMSO controls, single biological replicate
[3] = molecular target: C. elegans (N2) complex I (NADH:ubiquinone oxidoreductase) (Caenorhabditis elegans, UniProt P24887+Q93873+Q94360); assay: biochemical; type: biochemical; settings: for Log IC50 C. elegans complex I: log10 of IC50 in µM, C. elegans mitochondria
Chain of C. elegans (N2) complex I (NADH:ubiquinone oxidoreductase) (Q94360 17-199): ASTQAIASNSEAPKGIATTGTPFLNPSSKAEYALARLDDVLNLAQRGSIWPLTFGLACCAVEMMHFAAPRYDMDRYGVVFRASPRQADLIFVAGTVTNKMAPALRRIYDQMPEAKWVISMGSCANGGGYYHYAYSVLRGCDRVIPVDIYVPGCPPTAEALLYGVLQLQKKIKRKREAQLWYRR
Chain of C. elegans (N2) complex I (NADH:ubiquinone oxidoreductase) (P24887 whole entry): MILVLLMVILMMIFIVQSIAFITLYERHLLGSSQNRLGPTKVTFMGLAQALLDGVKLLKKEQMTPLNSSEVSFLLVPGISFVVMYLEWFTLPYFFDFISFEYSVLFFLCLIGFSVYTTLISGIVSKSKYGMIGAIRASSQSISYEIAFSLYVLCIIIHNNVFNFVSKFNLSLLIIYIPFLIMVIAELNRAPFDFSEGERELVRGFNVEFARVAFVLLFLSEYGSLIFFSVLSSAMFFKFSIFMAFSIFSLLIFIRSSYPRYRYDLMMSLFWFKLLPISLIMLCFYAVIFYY
Chain of C. elegans (N2) complex I (NADH:ubiquinone oxidoreductase) (Q93873 31-482): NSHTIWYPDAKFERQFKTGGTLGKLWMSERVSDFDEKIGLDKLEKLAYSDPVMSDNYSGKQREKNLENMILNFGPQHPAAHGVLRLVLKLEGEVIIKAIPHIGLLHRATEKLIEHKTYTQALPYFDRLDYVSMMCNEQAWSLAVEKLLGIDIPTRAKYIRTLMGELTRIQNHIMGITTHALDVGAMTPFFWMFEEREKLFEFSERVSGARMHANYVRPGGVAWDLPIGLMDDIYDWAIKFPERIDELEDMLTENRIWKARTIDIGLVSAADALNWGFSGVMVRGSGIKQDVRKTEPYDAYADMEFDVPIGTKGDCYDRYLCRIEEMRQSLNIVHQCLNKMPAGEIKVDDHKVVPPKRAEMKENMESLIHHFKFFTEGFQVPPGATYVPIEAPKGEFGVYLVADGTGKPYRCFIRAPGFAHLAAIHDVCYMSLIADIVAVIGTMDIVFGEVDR
Protocol: Mitochondria were isolated from the following free-living nematode strains: C. elegans—N2, CB3474, ECA882, ECA917, ECA1075, ECA1080; C. briggsae—AF16; P. pacificus—PS312; and P. hermaphrodita—B178. With the exception of the P. hermaphrodita strain B178, adult worms of each strain were grown in bulk through liquid culture to obtain mitochondria in sufficient quantities. Due to poor growth in liquid media, mixed stage populations of P. hermaphrodita were washed off and collected from NGM plates seeded with OP50. The isolation of mitochondria from all free-living nematode strains followed the protocol previously outlined in Burns et al.[24]. In brief, a 1 L saturated culture of E. coli HB101 was concentrated 20-fold in 50 mL complete S-medium. ~500,000 L1 worms synchronized from an embryo preparation performed the day prior were added to the S-media/HB101 suspension and grown to adulthood over the course of 3.5 days at 20 °C with shaking at 165 rpm. Following growth, worms were collected in 10 ×15 mL conical tubes and washed 7 times in M9 buffer. Worm suspensions were then combined into a single 15 mL conical tube and diluted to a final volume of 15 mL with M9 buffer. 1 mL aliquots of worm suspension were then distributed to 15 × 1.5 mL screw-cap microcentrifuge tubes and were pelleted at 500 g for 1 min. Excess M9 was aspirated without disturbing the worm pellet. 600 μL ice-cold isolate buffer A (250 mM sucrose, 10 mM Tris (pH 7.5), 1 mM EDTA, 1 mM PMSF (freshly prepared)) and 300 μL cold glass beads were then added to each tube. Tubes were incubated on ice for 10 min, and the worms were then lysed by bead beating (6 x 30 s, with 1 min cooling intervals). Tubes containing worm lysate were centrifuged at 1,000 g for 10 min at 4 °C and the supernatant was transferred to 15 new microcentrifuge tubes on ice. The tubes were centrifuged a second time at 1,000 g for 10 min at 4 °C and the supernatant was once again transferred to 15 new microcentrifuge tubes on ice. These tubes were then centrifuged at 16,000 g for 10 min at 4 °C. The resulting mitochondrial pellet was washed twice by re-suspension in 300 μL of ice-cold isolate buffer B (250 mM sucrose, 10 mM Tris (pH 7.5), 1 mM EDTA). Following the final wash, isolation buffer was aspirated from each tube and the pellets were flash-frozen in ethanol/dry ice and stored at −80 °C until needed.
(§1) The enzymatic activities of individual ETC complexes (I-IV) were assessed spectrophotometrically in isolated mitochondria using a Varioskan LUX Multimode plate reader (ThermoFisher Scientific). Mitochondrial pellets previously isolated were thawed on ice and resuspended in ice-cold isolation buffer (250 mM sucrose, 10 mM Tris (pH 7.5), 1 mM EDTA). The BCA assay (Walker, 1994) was used to quantify the protein concentration of mitochondria suspensions; solutions were diluted to a concentration of 0.2 mg/mL for use in all assays. For the complex I assay, mitochondria pellets were freeze-thawed on ice three times to increase enzyme accessibility. […] 20 μL mitochondria suspension was then added/mixed with a pipette to initiate the reaction. Immediately following the addition of mitochondria, absorbance was measured (complex I and II: 600 nm; complex III and IV: 550 nm) in 30 s intervals over 15 min. Enzymatic activity was determined in each reaction by plotting absorbance versus time and calculating the slope of the curve during the initial linear phase of the reaction. […] Percent activity of each complex was calculated by dividing the enzyme-specific activity of each well by the enzyme-specific activity of the corresponding solvent controls.
(§2) Chemical solutions were prepared in complex I assay buffer composed of 25 mM KPi buffer (pH 7.5), 3 mg/mL bovine serum albumin (BSA), 80 μM NADH, 60 μM decylubiquinone, 160 μM DCIP, 2 μM antimycin A and 2 mM KCN.
For preliminary screens of hit compounds, compounds were screened at 100 μM; data are the average of at least three biological replicates.

[4] = in vitro; settings: human
[5] = molecular target: B. taurus (heart) complex I (Bos taurus, UniProt P03887+P17694+P42026); assay: biochemical; type: biochemical; settings: for IC50: B. taurus heart mitochondria, read-out: B. taurus Complex I IC50; for Log IC50 B. taurus complex I: log10 of IC50 in µM, B. taurus mitochondria
Chain of B. taurus (heart) complex I (P03887 whole entry): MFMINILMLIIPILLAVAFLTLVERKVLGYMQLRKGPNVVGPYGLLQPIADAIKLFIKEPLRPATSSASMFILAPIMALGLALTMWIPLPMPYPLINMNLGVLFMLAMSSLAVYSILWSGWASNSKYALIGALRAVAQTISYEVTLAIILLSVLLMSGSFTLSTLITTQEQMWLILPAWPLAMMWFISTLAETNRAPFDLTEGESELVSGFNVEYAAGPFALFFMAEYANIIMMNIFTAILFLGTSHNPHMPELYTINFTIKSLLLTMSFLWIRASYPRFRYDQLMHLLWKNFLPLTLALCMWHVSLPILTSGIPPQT
Chain of B. taurus (heart) complex I (P17694 34-463): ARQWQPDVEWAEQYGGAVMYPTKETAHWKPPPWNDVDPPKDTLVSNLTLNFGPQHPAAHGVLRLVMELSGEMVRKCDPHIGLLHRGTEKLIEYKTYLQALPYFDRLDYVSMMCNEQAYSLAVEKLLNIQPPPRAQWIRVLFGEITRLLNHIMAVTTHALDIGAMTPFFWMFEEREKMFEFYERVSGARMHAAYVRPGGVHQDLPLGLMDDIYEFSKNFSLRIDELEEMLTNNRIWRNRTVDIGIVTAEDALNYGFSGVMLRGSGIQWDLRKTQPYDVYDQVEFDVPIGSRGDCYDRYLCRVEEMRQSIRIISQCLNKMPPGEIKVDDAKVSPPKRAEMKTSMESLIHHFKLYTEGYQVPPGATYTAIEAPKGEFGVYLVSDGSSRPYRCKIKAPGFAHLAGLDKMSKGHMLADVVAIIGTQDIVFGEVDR
Chain of B. taurus (heart) complex I (P42026 38-216): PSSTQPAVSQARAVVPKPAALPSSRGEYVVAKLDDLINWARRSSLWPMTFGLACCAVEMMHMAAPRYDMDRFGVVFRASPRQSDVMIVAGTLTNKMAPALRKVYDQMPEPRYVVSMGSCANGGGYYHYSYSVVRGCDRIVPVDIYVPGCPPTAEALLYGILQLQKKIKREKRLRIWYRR
Protocol: Six 8–10-week-old C57Bl/6 female mice (Charles River) were freshly dissected, and their livers and hearts collected into separate 1.5 mL microcentrifuge tubes. Organs were flash-frozen in liquid nitrogen and stored at −80 °C prior to use. The heart of a freshly slaughtered adult cow was obtained from a local abattoir (Peel Sausage Inc.), chopped into ~1-inch cubes and collected into 50 mL falcon tubes. Falcon tubes were flash-frozen in a container of dry ice and stored at −80 °C prior to use. Isolation of mitochondria from all mammalian tissue was carried out following the protocol described above. However, due to size, the initial homogenization of tissue was performed by 15 strokes in a dounce homogenizer (mouse heart) or with several 5 s pulses in small Nutribullet blender (cow heart). All mouse protocols for mouse care and dissection were reviewed and approved by the University of Toronto Animal Care Committee, in accordance with the Canadian Council on Animal Care.
as §1, §2
For preliminary screens of hit compounds, compounds were screened at 100 μM; data are the average of at least three biological replicates. The complex I and II activity assays were used for additional dose-response experiments. […] For dose responses of benzimidazole analogs, data represent the average of two biological replicates. For all other dose-responses, data represent the average of at least three biological replicates.

[6] = test system: L1 wild-type C. elegans; assay: microbe, parasite or virus in culture; settings: Caenorhabditis elegans, read-out: C. elegans KCN Survival Assay LC50, estimated from fitted dose-response curves; mean of at least two biological replicates
[7] = read-out: C. elegans (ben-1) Development & Viability Assay LC50
[8] = read-out: C. elegans ben-1 log10 LC50 (converted)
[9] = 50 μM compound, hit = relative motility below 0.25 3 hours after removal of KCN
[10] = in vitro complex I dose response on C. elegans mitochondria, average of at least two biological replicates, fit in R (DRC), read-out: IC50 C. elegans complex I
[11] = wild-type (N2) mitochondria, read-out: C. elegans Complex I IC50
[12] = wild-type C. elegans mitochondria, estimated from fitted dose-response curves, read-out: C. elegans Complex I IC50
[13] = 50 μM, KCN survival assay, hit = relative motility below 0.25
[14] = HEK293 Cell Viability Assay LC50, HEK293 cells, estimated from fitted dose-response curves, mean of at least two biological replicates
[15] = wild-type C. elegans mitochondria, read-out: C. elegans Complex I IC50

Compound | LC50 [1, 7] | LC50 [1, 8] | Screen "Hit" [2, 9] | IC50 [3, 10] | Log IC50 C. elegans complex I [3] | IC50 [3, 11] | IC50 [3, 12] | CC50 at 2 days [4] | IC50 ([5]; estimated from fitted dose-response curves) | Log IC50 B. taurus complex I [5] | LC50 [6] | Screen "Hit" [2, 13] | Relative Motility ([2]; 50 μM) | CC50 at 2 days [4, 14] | IC50 [3, 15] | IC50 [5] | LC50 ([1]; read-out: C. elegans ben-1 LC50) | Hit ([2]; active or inactive at 50 μM in C. elegans assay of RQ-dependent metabolism) | CC50 at 2 days ([4]; HEK293 Cell Viability Assay LC50, HEK293 cells, estimated from fitted dose-response curves)
Cc1nc2ccccc2n1Cc1ccc(F)cc1 [Compound 7360886] | 170 µM | 169 µM | Y (hits were identified as compounds that reduced relative motility below 0.25 (75% reduction)) | 0.93 µM | -0.03 µM | 0.93 µM | 0.93 µM | > 100 µM | 4.54 µM | 0.66 µM | 27 µM |  |  |  |  |  |  |  | 
CCn1c(/C=C/c2ccc(F)cc2)nc2ccccc21 [Compound 7147614] | 77 µM | 77.1 µM |  |  |  |  | > 75 µM |  |  |  | 14.4 µM | Y (hits were identified as compounds that reduced relative motility below 0.25 (75% reduction)) | 0.130 | 41 µM |  |  |  |  | 
Cn1c(Cc2ccc(Cl)cc2)nc2ccccc21 [Compound 9005666] | 193 µM | 193 µM | Y (hits were identified as compounds that reduced relative motility below 0.25 (75% reduction)) | 8.27 µM | 0.92 µM | 8.27 µM |  | > 100 µM |  | 1.52 µM | 28.6 µM |  |  |  | 8.27 µM | 33.3 µM |  |  | 
c1ccc(-c2noc(CCCCc3nc4ccccc4[nH]3)n2)cc1 [STK633241] | > 1000 µM | > 500 µM | Y (hits were identified as compounds that reduced relative motility below 0.25 (75% reduction)) | 20.6 µM | 1.31 µM |  |  |  |  | 1.27 µM | 19.4 µM |  |  |  | 20.6 µM | 18.5 µM | > 500 µM |  | 
COc1ccccc1/C=C/c1nc2ccccc2[nH]1 [Compound 7148894] | 188 µM | 188 µM |  |  |  |  | > 75 µM |  |  |  | 9.02 µM | Y (hits were identified as compounds that reduced relative motility below 0.25 (75% reduction)) | 0.170 | < 12.5 µM |  |  |  |  | 
Nc1nc2ccccc2n1CCCOc1ccccc1 [Compound 7915320] | 150 µM | 150 µM |  | 6.9 µM | 0.84 µM |  |  |  |  | 1.19 µM | 23.7 µM |  |  |  | 6.9 µM | 15.6 µM |  | non | 60 µM
Cc1nc2ccccc2n1Cc1ccc(C(C)(C)C)cc1 [Compound 5521938] | 272 µM | 272 µM | Y (hits were identified as compounds that reduced relative motility below 0.25 (75% reduction)) | 2.57 µM | 0.41 µM | 2.57 µM |  | 35.3 µM |  | 0.07 µM | 11 µM |  |  |  | 2.57 µM | 1.18 µM |  |  | 
